Experimental data reported in the NIST ThermoML archive (doi:10.1021/acs.jced.7b00002).

Experiment: xn = mol fraction of the nth substance listed
Settings: 97.6 kPa, Liquid; for viscosity: Capillary tube (Ostwald / Ubbelohde) method; for mass density: Vibrating tube method

CCCCCCCC[n+]1ccn(C)c1.[Cl-] [1-methyl-3-octylimidazolium chloride] + CC(=O)N(C)C
Settings | mass density [kg/m3] | viscosity [mPa·s]
303.15 K, x1 = 0.139 | 958.09 | 3.63
303.15 K, x1 = 0.273 | 975.02 | 14.75
303.15 K, x1 = 0.361 | 981.93 | 32.45
303.15 K, x1 = 0.468 | 988.64 | 92.29
303.15 K, x1 = 0.602 | 994.87 | 288.58
303.15 K, x1 = 0.786 | 1001.37 | 1049.5
303.15 K, x1 = 0.877 | 1003.75 | 1865.4
303.15 K, x1 = 1 | 1006.2 | 7339.7
308.15 K, x1 = 0.139 | 954.07 | 3.26
308.15 K, x1 = 0.273 | 971.38 | 12.52
308.15 K, x1 = 0.361 | 978.45 | 26.51
308.15 K, x1 = 0.468 | 985.3 | 70.68
308.15 K, x1 = 0.602 | 991.72 | 210.24
308.15 K, x1 = 0.786 | 998.36 | 714.83
308.15 K, x1 = 0.877 | 1000.8 | 1255
308.15 K, x1 = 1 | 1003.33 | 4272.9
313.15 K, x1 = 0.139 | 950.12 | 2.94
313.15 K, x1 = 0.273 | 967.74 | 10.65
313.15 K, x1 = 0.361 | 974.97 | 21.93
313.15 K, x1 = 0.468 | 981.99 | 55.22
313.15 K, x1 = 0.602 | 988.57 | 156.62
313.15 K, x1 = 0.786 | 995.34 | 502.24
313.15 K, x1 = 0.877 | 997.86 | 853.26
313.15 K, x1 = 1 | 1000.48 | 2766.9
318.15 K, x1 = 0.139 | 946.26 | 2.65
318.15 K, x1 = 0.273 | 964.11 | 9.2
318.15 K, x1 = 0.361 | 971.5 | 18.32
318.15 K, x1 = 0.468 | 978.68 | 44.2
318.15 K, x1 = 0.602 | 985.42 | 119.22
318.15 K, x1 = 0.786 | 992.37 | 358.94
318.15 K, x1 = 0.877 | 994.92 | 594.67
318.15 K, x1 = 1 | 997.64 | 1788.6
323.15 K, x1 = 0.139 | 942.47 | 2.42
323.15 K, x1 = 0.273 | 960.49 | 8.02
323.15 K, x1 = 0.361 | 968.04 | 15.51
323.15 K, x1 = 0.468 | 975.38 | 35.89
323.15 K, x1 = 0.602 | 982.29 | 92.49
323.15 K, x1 = 0.786 | 989.43 | 263.25
323.15 K, x1 = 0.877 | 992 | 425.36
323.15 K, x1 = 1 | 994.82 | 1198.7
328.15 K, x1 = 0.139 | 938.72 | 2.21
328.15 K, x1 = 0.273 | 956.87 | 7.04
328.15 K, x1 = 0.361 | 964.59 | 13.24
328.15 K, x1 = 0.468 | 972.09 | 29.51
328.15 K, x1 = 0.602 | 979.16 | 72.76
328.15 K, x1 = 0.786 | 986.49 | 198.27
328.15 K, x1 = 0.877 | 989.12 | 310.37
328.15 K, x1 = 1 | 992 | 828.3
333.15 K, x1 = 0.139 | 934.99 | 2.04
333.15 K, x1 = 0.273 | 953.26 | 6.22
333.15 K, x1 = 0.361 | 961.14 | 11.44
333.15 K, x1 = 0.468 | 968.81 | 24.7
333.15 K, x1 = 0.602 | 976.05 | 58.34
333.15 K, x1 = 0.786 | 983.55 | 150.45
333.15 K, x1 = 0.877 | 986.24 | 231.3
333.15 K, x1 = 1 | 989.17 | 588.69
338.15 K, x1 = 0.139 | 931.23 | 1.88
338.15 K, x1 = 0.273 | 949.65 | 5.53
338.15 K, x1 = 0.361 | 957.71 | 9.98
338.15 K, x1 = 0.468 | 965.54 | 20.81
338.15 K, x1 = 0.602 | 972.96 | 47.46
338.15 K, x1 = 0.786 | 980.62 | 116.53
338.15 K, x1 = 0.877 | 983.37 | 176.46
338.15 K, x1 = 1 | 986.38 | 426.28
343.15 K, x1 = 0.139 | 927.34 | 1.74
343.15 K, x1 = 0.273 | 946.05 | 4.96
343.15 K, x1 = 0.361 | 954.28 | 8.73
343.15 K, x1 = 0.468 | 962.28 | 17.72
343.15 K, x1 = 0.602 | 969.87 | 38.89
343.15 K, x1 = 0.786 | 977.69 | 91.77
343.15 K, x1 = 0.877 | 980.49 | 136.74
343.15 K, x1 = 1 | 983.63 | 316.66
348.15 K, x1 = 0.139 | 923.35 | 1.62
348.15 K, x1 = 0.273 | 942.44 | 4.47
348.15 K, x1 = 0.361 | 950.85 | 7.7
348.15 K, x1 = 0.468 | 959.03 | 15.26
348.15 K, x1 = 0.602 | 966.79 | 32.38
348.15 K, x1 = 0.786 | 974.78 | 73.67
348.15 K, x1 = 0.877 | 977.62 | 107.08
348.15 K, x1 = 1 | 980.88 | 237.14
353.15 K, x1 = 0.139 | 919.35 | 1.51
353.15 K, x1 = 0.273 | 938.85 | 4.05
353.15 K, x1 = 0.361 | 947.43 | 6.85
353.15 K, x1 = 0.468 | 955.78 | 13.2
353.15 K, x1 = 0.602 | 963.72 | 27.28
353.15 K, x1 = 0.786 | 971.87 | 59.69
353.15 K, x1 = 0.877 | 974.77 | 85.14
353.15 K, x1 = 1 | 978.13 | 181.41
